Test results published in patent US9603980B2, “Layer-by-layer stereocomplexed polymers as drug depot carriers or coatings in medical devices” (Cardinal Health Switzerland 515 GmbH, priority 2008, dated 2017).

Tests used:
LDL = assay: Lag phase for LDL peroxidation ex vivo, diene conjugates after addition of copper ions; set-up: species or system human; settings: treatment for one month; compared with vitamins alone or the combination of probucol and vitamins; preliminary results
[1] = system: tissue hyperplasia and vascular remodeling after coronary angioplasty; assay: IVUS substudy of the MVP restenosis trial; assay type: in vivo, human; settings: for Lumen area: Follow-up Post PTCA (change)
Source text: Serial intravascular ultrasound (IVUS) examinations have been performed in a consecutive series of patients involved in the MVP trial. By providing tomographic views of coronary arteries with high resolution, IVUS allows quantitative assessment of changes in arterial lumen and wall dimensions. We were therefore able in this study to determine the pathophysiology of coronary restenosis after balloon angioplasty in patients systematically undergoing follow-up IVUS examination and determine the effect of probucol on tissue hyperplasia and vascular remodeling after coronary angioplasty.
The present invention concerns the IVUS substudy from the MVP restenosis trial. MVP was a double-blind placebo-controlled randomized clinical trial with four study groups. The protocol was approved by the Montreal Heart Institute institutional review board. The MVP study design, inclusion and exclusion criteria have been previously described (N Engl J Med 1997; 365-372). Briefly, patients referred for elective coronary angioplasty were evaluated at least 30 days prior to their scheduled procedure. Eligible patients were asked to provide written informed consent. Patients were eligible if they were scheduled to undergo standard balloon angioplasty on at least one native coronary artery and had at least one de novo target lesion with luminal narrowing of fifty percent or more by caliper measurements.
Beginning thirty days prior to scheduled angioplasty, patients were randomly assigned to receive either probucol alone, multivitamins alone, the combination of probucol and multivitamins, or placebo. Probucol 500 mg or matched placebo was administered twice daily. […] The sequence of contrast injections with the exact degree of angulation was recorded and used for every angiogram. Coronary arteriograms (pre-, post-procedure, and final follow-up) were analyzed together using the Coronary Measurement System (CMS), as previously reported. […] Patients were readmitted for follow-up coronary angiography at five to seven months. […]

[2] = system: restenosis after coronary angioplasty; assay: MVP randomized clinical trial, angiographic and clinical outcome; assay type: in vivo, human
Source text: In addition, the invention enables the skilled practitioner to use probucol in conjunction with other percutaneous coronary interventions such as stenting if it is deemed appropriate. The present invention concerns the IVUS substudy from the MVP restenosis trial. MVP was a double-blind placebo-controlled randomized clinical trial with four study groups. The protocol was approved by the Montreal Heart Institute institutional review board. The MVP study design, inclusion and exclusion criteria have been previously described (N Engl J Med 1997; 365-372). Briefly, patients referred for elective coronary angioplasty were evaluated at least 30 days prior to their scheduled procedure. Eligible patients were asked to provide written informed consent. Patients were eligible if they were scheduled to undergo standard balloon angioplasty on at least one native coronary artery and had at least one de novo target lesion with luminal narrowing of fifty percent or more by caliper measurements. Beginning thirty days prior to scheduled angioplasty, patients were randomly assigned to receive either probucol alone, multivitamins alone, the combination of probucol and multivitamins, or placebo. Probucol 500 mg or matched placebo was administered twice daily. The multivitamin complex, consisting of vitamin E 700 IU, vitamin C 500 mg and beta-carotene 30,000 IU, or matched placebo was also administered in one tablet twice daily. All patients received an extra dose of probucol 1000 mg and/or vitamin E 2000 IU and/or matched placebos twelve hours before angioplasty, according to randomization assignment. […] Balloon angioplasty was performed according to standard techniques. […] The sequence of contrast injections with the exact degree of angulation was recorded and used for every angiogram. Coronary arteriograms (pre-, post-procedure, and final follow-up) were analyzed together using the Coronary Measurement System (CMS), as previously reported. Patient follow-up included clinical evaluation, exercise treadmill testing, blood chemistry, pill count and drug level measurements, and dietary assessment and intervention. Patients were readmitted for follow-up coronary angiography at five to seven months. Patients in whom arteriography was performed for clinical reasons before the fifth month returned for repeat angiographic examination at five to seven months if no definite angiographic restenosis was present on at least one dilated site. During follow-up, patients with recurrence or exacerbation of anginal symptoms were treated with medical therapy or revascularization procedures (reangioplasty or Coronary Bypass Surgery) as clinically indicated. […]

[3] = compared to placebo, probucol given alone

`CC(C)(Sc1cc(C(C)(C)C)c(O)c(C(C)(C)C)c1)Sc1cc(C(C)(C)C)c(O)c(C(C)(C)C)c1` [Probucol Alone, 4,4′-([1-methylethylidene)bis(thio)]bis-[2,6-bis(1,1-dimethylethyl)phenol]] was tested, and the “protection against LDL oxidation” value (LDL) was “significantly greater protection”, the Lumen area ([1]; compliant patients only) was −0.15 ± 1.70 mm^2 and the Lumen area ([1]; per segment) was −0.15 ± 1.70 mm^2. For the same compound, the “increase in vessel enlargement” value ([1]; probucol only compared with placebo) was “seven hundred-thirty”, the “reduction of the need for repeat angioplasty” value ([2]; at 6 month, compared to placebo, probucol given alone) was “fifty-eight” and the “reduction of angiographic lumen loss” value [2, 3] was “sixty-eight”. For the same compound, the “reduction of restenosis rate per segment” value [2, 3] was “forty-seven” and the “patients in whom restenosis still occurred” value ([2]; patients given probucol alone) was “over twenty”.
